A short description of this test: ATP-based viability loss in HEK293T cells – cell-based, CellTiter-Glo luminescence, cherry-pick, set 3, cytotoxicity control, dose response (AID 720588). The settings on record: HEK293T viability, CellTiter-Glo ATP luminescence, 72 h. In general terms: In ATP-based viability assays light output follows the ATP content of the culture.

The record followed here is PubChem BioAssay AID720588 (Broad Institute, 2013).

Calls of active or inactive are those of the source.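 How the source made its calls: active means fitted curve falls past a set limit of signal loss at no more than twice the top dose; inconclusive means flat fit between 30 and 70% signal loss, or poor fit; inactive means signal rise, flat within 30%, or crossing too high.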

Take `COc1ccc(/C=C2/NC(=O)N(CC(=O)Nc3cccc(C)c3)C2=O)cc1O`: the activity change, negative = cytotoxicity (at 26 µM (top of the series)) is -15.3% (inactive).
Consider `CCC1=Nc2cc(C(=O)NCC3CCCO3)ccc2Sc2ccc(Br)cc21` (stereo not given), for which the activity change, negative = cytotoxicity (at 26 µM (top of the series)) is -27.1% (inactive).
The same measure, in the same setting: in the case of `COC(=O)C[C@@H]1CC[C@@H]2[C@H](COc3ccc(NC(=O)c4ccc(F)c(F)c4)cc3C(=O)N2C)O1` it was 16.7% (inactive).
As for `CC(=NNc1ccc2ccccc2n1)c1ccccc1O`, the activity change, negative = cytotoxicity (at 26 µM (top of the series)) is -9.29% (inactive).
The same measure, in the same setting: as for `COC(=O)c1c(C)[nH]c(/C=N/Nc2ccccc2)c1C`, the figure is -4.63% (inactive); as for `Cc1[nH]c(=S)sc1Cc1ccc(Cl)c(Cl)c1`, 20.1% (inactive); as for `COc1ccc(NC(=O)N2CCCCN3[C@H](CO)[C@H](c4ccc(C#CCC(C)C)cc4)[C@H]3C2)cc1`, -56.2% (inactive).
The same measure, in the same setting: as for `C[C@@H]1CN([C@H](C)CO)C(=O)Cc2cc(N(C)C)ccc2O[C@H]1CN(C)Cc1ccc(C(=O)Nc2ccccc2N)cc1`, the figure is -25.9% (inactive).
Consider `O=C(NCc1ccccn1)c1ccc(CNS(=O)(=O)c2cccc(Cl)c2)cc1`, for which the activity change, negative = cytotoxicity (at 26 µM (top of the series)) is -15.8% (inactive).
The same measure, in the same setting: as for `COC(=O)c1cccc(NC(=O)NC(=O)c2ccccc2Cl)c1`, the figure is -19% (inactive).
Still for that read-out and setting: as for `Cc1c(Cc2ccc3c(c2)OCO3)sc(NC(=O)C(C)(C)C)c1C#N`, the figure is -13.7% (inactive); as for `COc1ccc(-c2sc3ccccc3c2-c2ccc(OCCN3CCCCC3)cc2)cc1`, -16% (inactive); as for `Cc1ccsc1/C=N/Nc1ccc(C(=O)O)cc1`, -12.7% (inactive).
Same read-out and setting: in the case of `COC(=O)C[C@@H]1CC[C@@H]2[C@@H](COc3ccc(NC(=O)Nc4cccc(F)c4)cc3C(=O)N2C)O1` it was -28.1% (inactive); in that of `C[C@@H]1CN([C@H](C)CO)C(=O)c2cc(NC(=O)CCCCCC(=O)Nc3ccccc3N)ccc2O[C@@H]1CN(C)Cc1ccc(Cl)c(Cl)c1`, -5.39% (inactive); in that of `COC(=O)C[C@@H]1CC[C@@H]2[C@H](COc3ccc(NC(=O)c4cc(F)cc(F)c4)cc3C(=O)N2C)O1`, -1.07% (inactive).
Consider `N#C[C@H]1N[C@H](CO)[C@H]1c1ccc(C#Cc2ccccc2F)cc1`, for which, for the setting “at 23.5 µM (top of the series)”, the activity change, negative = cytotoxicity was -11.8% (inactive).
As for `CC(C)(C)c1ccc(Oc2ccc(NC(=O)c3ccccc3C(=O)O)cn2)cc1`, the activity change, negative = cytotoxicity (at 26 µM (top of the series)) is 16.5% (inactive).
On the same count and under the same terms, in the case of `COc1ccc(/C=C2\SC(=O)N(CCCC(=O)Nc3cc(Cl)ccc3C(=O)O)C2=O)cc1` it was -2.58% (inactive); in that of `COc1ccccc1-c1cn(CC[C@H]2CC[C@@H](NC(=O)C3CCCC3)[C@@H](CO)O2)nn1`, 0.512% (inactive).
The same measure, in the same setting: as for `CCOc1ccccc1CNC(=O)c1ccc(Sc2ccc(Cl)cc2)c(NC(C)=O)c1`, the figure is -4.6% (inactive).
The same measure, in the same setting: as for `CCCCCCN(C(=O)CCCCCN1C(=O)NC(c2ccc(Cl)cc2)C(C(=O)OCc2ccccc2)=C1C)C(C(=O)NCCCC)c1ccc(OCC(=O)OC)c(C(=O)OC)c1` (stereo not given), the figure is -3.96% (inactive); as for `CCCn1c(C)cc(C(=O)CN2C(=O)c3ccccc3S2(=O)=O)c1C`, 4.1% (inactive).
For `O=C1C(=O)N(Cc2cccs2)c2ccccc21`, the activity change, negative = cytotoxicity (at 26 µM (top of the series)) is -25.8% (inactive).
The same measure, in the same setting: in the case of `Cc1cc(-c2nc3ccccc3s2)ccc1N` it was -28% (inactive); in that of `COc1cccc(Sc2ccccc2/C=N/NC(N)=O)c1`, -10.9% (inactive).
Still for that read-out and setting: as for `Cc1noc(C)c1NC(=O)Nc1ccc2c(c1)CC(=O)N([C@@H](C)CO)C[C@@H](C)[C@@H](CN(C)Cc1ccc(Cl)c(Cl)c1)O2`, the figure is 61.4% (inactive).
For the compound `O=C(O)c1ccc(N/N=C/c2c[nH]c3ccccc23)cc1`, the activity change, negative = cytotoxicity (at 26 µM (top of the series)) was 6.31% (inactive).
On the same count and under the same terms, as for `Cc1ccccc1N=CC1=C(O)c2ccccc2C1=O`, the figure is 1.79% (inactive); as for `O=C1C(=O)N(CCS(=O)(=O)c2ccccc2)c2ccc(Cl)cc21`, -2.19% (inactive); as for `Nc1ccn([C@@H]2O[C@H](CO)[C@@H](O)C2O)c(=O)n1` (stereo not given in full), -12.5% (inactive).
On to `C[C@@H]1CN([C@@H](C)CO)C(=O)c2cccc(NC(=O)Nc3cccc4ccccc34)c2O[C@@H]1CN(C)Cc1ccc(C(=O)Nc2ccccc2N)cc1`, for which the activity change, negative = cytotoxicity (at 23.5 µM (top of the series)) was -11.5% (inactive).
`CN(C)c1ccc(N=Nc2ccc(C(=O)O)cc2)cc1`: under “at 26 µM (top of the series)”, the activity change, negative = cytotoxicity was -1.83% (inactive).
On the same count and under the same terms, in the case of `O=C(Nc1ccc(NC(=O)c2cc3ccccc3o2)cc1)c1ccc2c(c1)OCCO2` it was 7.63% (inactive); in that of `COc1cc(/C=C/C(=O)CC(=O)/C=C/c2ccc(O)c(OC)c2)ccc1O`, -41.3% (inactive).
